Measured values: article PMC7602288, “Characterization of Novel Dipeptidyl Peptidase-IV Inhibitory Peptides from Soft-Shelled Turtle Yolk Hydrolysate Using Orthogonal Bioassay-Guided Fractionations Coupled with In Vitro and In Silico Study” (Pharmaceuticals, 2020)
Like-named read-outs stand apart in the source and are kept apart here. Peptide text beside a SMILES is read from it.

What was measured:
[1] = molecular target: T1, human Dipeptidyl-peptidase (DPP-IV) (Homo sapiens, UniProt P27487); experiment: DPP-IV inhibitory assay (Gly-Pro-p-nitroanilide substrate, absorbance 405 nm); assay type: biochemical; details: synthetic peptide; nonlinear regression, five concentrations
T1 construct: purchased Sigma Chemical Co. (St. Louis, MO, USA)
Source text: Chinese soft-shelled turtle eggs were collected from Pingtung City, Taiwan. Pepsin (from porcine gastric mucosa), trypsin (from bovine pancreas), α-chymotrypsin (from bovine pancreas, thermolysin (from Geobacillus stearothermophilus), human Dipeptidyl-peptidase (DPP-IV), Gly-Pro-p-nitroaniline (GP_pNA), Iodoacetamide (IAM), and linagliptin were purchased from Sigma Chemical Co. (St. Louis, MO, USA). Formic acid (FA), acetonitrile (ACN), and ammonium bicarbonate (ABC) were acquired from J.T. Baker (Phillipsburg, NJ, USA). Sequencing grade modified trypsin was purchased from Promega (Madison, WI, USA). Trifluoroacetic acid (TFA) was acquired from Alfa Aesar (Lancashire, UK), and Wang resin was obtained from Cleo Salus (Louisville, KY, USA). Deionized water (ddH2O) was collected using the PURELAB® water purification system from ELGA LabWater (Lane End, High Wycombe, UK). All other chemicals used in this study were of reagent grades. HyperSep Retain PEP Polymeric material was purchased from Thermo Scientific Inc. Molecular weight cut-off (3 kDa MWCO) was procured from Millipore (Bedford, MA, USA).
The DPP-IV inhibitory assay was analyzed in triplicate according to the method of Lacroix and Li-Chan using 96-well microplates with slight modification. […] Linagliptin was used as a reference inhibitor in this experiment. All the reagents and samples were dissolved in 1% DMSO buffer. […] The blank and negative control contained 25 µL of 1% DMSO and 25 µL of DPP-IV buffer. The reaction was activated by 50 µL of DPP-IV (1 U/µL) while the blank sample used 50 µL of DPP-IV buffer instead. After 1 h at 37 °C, the mixture was terminated using 100 µL of 1M sodium acetate buffer at pH 4.0. A concentration of peptide that can inhibit fifty percentage of DPP-IV activity was defined as the IC50 value of DPP-IV inhibition peptide. The IC50 value was determined using different concentrations of inhibitor by nonlinear regression of Graphpad Prism 5.0 (GraphPad Software, Inc., La Jolla, CA, USA).

[2] = molecular target: T1, human Dipeptidyl-peptidase (DPP-IV); experiment: Stability of synthesized peptides against DPP-IV (pre-incubation experiment, LC-MS and inhibition assay); assay type: biochemical; details: peptide 500 µM; for DPP-IV inhibitory activity, after pre-incubation: after pre-incubation with DPP-IV 3 h at 37 °C
Procedure: The synthetic peptide was pre-incubated with DPP-IV to determine stability against DPP-IV. […] According to the previous method by Nongonierma et al. with slight modification, 50 μL of peptides (500 µM) dissolved in 1% DMSO were pre-incubated with 100 μL of DPP-IV (1 U/μL) in DPP-IV buffer at 37 °C for 3 h. Consequently, 75 µL of pre-incubation mixture was combined with 25 µL of 2 mM NaOH and 25 µL of 1.6 mM Gly-Pro-p-nitroanilide, and further pre-incubated at 37 °C for 10 min. The mixture was added with 25 µL of DPP-IV buffer and then incubated at 37 °C for 60 min. The reaction was ended using 100 µL of 1M sodium acetate at pH 4.0. The absorbance of each reaction was measured at 405 nm in a SpectraMax 190 Microplate Reader (Molecular Devices, LLC, San Jose, CA, USA) to determine DPP-IV inhibitory activity of peptide after a pre-incubation period. The remaining 75 µL of the original mixture was heat-inactivated at 95 °C for 10 min to end enzyme activity after which it was injected into LC-MS to confirm the stability of the peptide.

DPP-IV = details: cited from earlier work

T1 sequence (P27487 whole entry): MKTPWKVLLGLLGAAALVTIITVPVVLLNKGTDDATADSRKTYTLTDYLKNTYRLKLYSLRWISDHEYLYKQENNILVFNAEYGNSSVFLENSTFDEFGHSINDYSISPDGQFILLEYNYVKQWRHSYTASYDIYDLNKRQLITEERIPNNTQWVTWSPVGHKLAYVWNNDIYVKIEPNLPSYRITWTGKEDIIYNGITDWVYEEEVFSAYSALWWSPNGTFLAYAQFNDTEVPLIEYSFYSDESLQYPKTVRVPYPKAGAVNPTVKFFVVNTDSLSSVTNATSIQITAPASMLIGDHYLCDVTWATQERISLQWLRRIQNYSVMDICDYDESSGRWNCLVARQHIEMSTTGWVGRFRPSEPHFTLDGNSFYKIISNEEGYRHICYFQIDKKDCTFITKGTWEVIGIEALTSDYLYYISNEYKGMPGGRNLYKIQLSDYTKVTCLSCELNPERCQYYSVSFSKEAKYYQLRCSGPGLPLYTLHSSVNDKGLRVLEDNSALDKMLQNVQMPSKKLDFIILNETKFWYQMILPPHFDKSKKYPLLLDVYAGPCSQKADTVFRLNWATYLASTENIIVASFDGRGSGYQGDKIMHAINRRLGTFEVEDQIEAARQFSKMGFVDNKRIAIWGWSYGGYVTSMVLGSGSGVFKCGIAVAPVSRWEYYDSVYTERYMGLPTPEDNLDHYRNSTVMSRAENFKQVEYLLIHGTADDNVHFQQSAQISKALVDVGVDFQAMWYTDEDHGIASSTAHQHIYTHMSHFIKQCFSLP

IC50 [1] | DPP-IV inhibitory activity, after pre-incubation [2] | DPP-IV inhibitory activity, without pre-incubation [2] | Compound | further results
464 ± 5.52 µM | 41.09% | 52.79% | CC(C)C[C@H](NC(=O)[C@@H]1CCCN1C(=O)[C@@H](N)CC(C)C)C(=O)N[C@@H](Cc1ccccc1)C(=O)O [LPLF] (H-LPLF-OH) | 
270 ± 15.9 µM | 55.22% | 76.72% | CC(C)C[C@H](N)C(=O)N1CCC[C@H]1C(=O)N[C@@H](CO)C(=O)N[C@@H](Cc1c[nH]c2ccccc12)C(=O)O [LPSW] (H-LPSW-OH) | 
> 2000 µM |  |  | CC(C)C[C@H](NC(=O)[C@@H]1CCCN1C(=O)[C@H](CC(C)C)NC(=O)CNC(=O)[C@@H](NC(=O)[C@@H](N)CC(C)C)C(C)C)C(=O)O [LVGLPL] (H-LVGLPL-OH) | 
289 ± 11.9 µM | 58.66% | 66.14% | CC(C)C[C@H](NC(=O)[C@H](C)NC(=O)[C@H](CC(C)C)NC(=O)CNC(=O)[C@@H]1CCCN1C(=O)[C@@H](N)C(C)C)C(=O)O [VPGLAL] (H-VPGLAL-OH) | 
433 ± 40.3 µM | 55.28% | 53.06% | CC(C)C[C@H](NC(=O)[C@H](CCC(N)=O)NC(=O)[C@H](CC(C)C)NC(=O)[C@@H](N)Cc1c[nH]c2ccccc12)C(=O)O [WLQL] (H-WLQL-OH) | 
 |  |  | GGPASGPAV | IC50 (DPP-IV; peptides from salmon gelatin): 8140 µM
 |  |  | ILNKEGINY | IC50 (DPP-IV; peptides from camel milk): 348 µM
 |  |  | LPLPL | IC50 (DPP-IV; peptides from milk): 325 µM
